From patent US10869871B2, “Compositions and methods of modulating short-chain dehydrogenase activity” (CASE WESTERN RESERVE UNIVERSITY, priority 2013, dated 2020)

Columns and labels:
bone marrow = test: Homing of CFSE labeled bone marrow cells to marrow of irradiated recipient mice; format: in vivo, mouse; conditions: for effect on SW033291 induced increase of homing: co-administered with SW033291 10 mg/kg IP
Protocol: Drugs are administered following radiation, following the transplant, and again at 8 hours after the transplant.

mouse bone marrow = test: Hematopoietic colonies from wild-type mouse bone marrow treated ex vivo; format: cell-based; conditions: 1 μM ex vivo on ice for 2 hours
Source text: Treated marrow is again then plated into methylcellulose for counting of hematopoietic colonies.

recombinant 15-PGDH [1] = target: T1, recombinant 15-PGDH (Homo sapiens (Human), UniProt P15428); test: Thermal melt shift of recombinant 15-PGDH protein (SYPRO Orange); format: binding
T1 sequence (P15428 whole entry): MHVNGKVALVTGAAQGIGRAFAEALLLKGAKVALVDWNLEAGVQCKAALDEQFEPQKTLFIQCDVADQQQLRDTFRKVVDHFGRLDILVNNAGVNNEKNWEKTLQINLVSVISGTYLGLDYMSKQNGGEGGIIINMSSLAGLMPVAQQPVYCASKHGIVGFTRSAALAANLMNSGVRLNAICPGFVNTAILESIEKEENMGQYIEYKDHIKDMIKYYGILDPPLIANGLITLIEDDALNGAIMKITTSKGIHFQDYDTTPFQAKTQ

recombinant 15-PGDH [2] = target: T1, recombinant 15-PGDH; test: Inhibition of enzymatic activity of recombinant 15-PGDH in an in vitro assay; format: biochemical; conditions: FIG. 97
[3] = tested on: 15-PGDH-luciferase fusion protein reporter in Vaco-9M (V9M) cell line; test: 15-PGDH-luciferase fusion reporter induction in Vaco-9M (V9M) cells; format: cell-based
Protocol: Some residual activity is seen for isomer B when added at 3.2 μM concentration. The small residual activity of isomer A may be due to possible 3% contamination with some residual isomer B.

[4] = tested on: 15-PGDH-luciferase fusion reporter in V9m, LS174T and V503 colon cancer cell lines; test: 15-PGDH-luciferase fusion reporter induction in colon cancer cell lines; format: cell-based; conditions: for luciferase activity of 15-PGDH luciferase fusion cells: V9m, LS174T, V503, relative to DMSO
15-PGDH protein = test: Western blot of 15-PGDH protein levels in treated cell lines; format: cell-based; conditions: […] compound for 48 hours
A549 cells = test: PGE2 levels in medium of IL1-beta stimulated A549 cells; format: cell-based
cell culture = test: Toxicity: concentration needed to decrease cell numbers in a cell culture assay; format: cell-based
Protocol: Time to inhibition refers to the time needed to inhibit the generation of NADH by 15-PGDH from the moment with drug is added into the reaction mix. Delta Tm refers to the shift in melting temperature of recombinant 15-PGDH in the presence of drug (with cofactor NADH also present). Concentration of Full Cell Line Reporter Induction refers to the concentration of drug that needs to be added to reporter cell line to achieve maximal induction of the 15-PGDH-luciferase gene fusion reporter cassette, as measured by luciferase assays. Hepatocyte stability refers to the half-life of compound in the presence of hepatocytes in culture. Toxicity refers to the concentration of compound needed to decrease cell numbers in a cell culture assay.

[5] = Chemical stability in aqueous solutions; format: physicochemical; conditions: over broad pH range
cell lines = test: PGE2 production by cell lines; format: cell-based; conditions: read-out: EC50 for increase of PGE2 production by cell lines
[6] = Immediate toxicity after IP injection into mice; format: in vivo; conditions: injected IP into mice at 50 mg/kg body weight
[7] = Stability when incubated with liver extracts; format: in vitro ADME; conditions: incubated with mouse, rat and human liver extracts
[8] = tested on: PGE2 in colon, bone marrow, liver, lung; test: PGE2 in mouse tissues after IP injection; format: in vivo

With `CCCCc1nn(-c2ccccc2C(F)(F)F)c(=O)n1Cc1ccc(-c2ccccc2S(=O)(=O)NC(=O)c2sccc2C)cc1` [L-161,982] the “effect on SW033291 induced increase of homing” value (bone marrow) was “near completely blocked”.

In the case of `COc1ccc2cc(OCC3(C(=O)O)CN(C(=O)c4ccc(F)cc4)C3)ccc2c1` [PF-04418948], the “effect on SW033291 induced increase of homing” value (bone marrow) is reported as “partially blocked”.

For `CCCCC[C@H](O)/C=C/[C@H]1[C@H](O)CC(=O)[C@@H]1C/C=C\CCCC(=O)O` [PGE2, prostaglandin E2], the “increase in number of bone marrow derived colonies relative to SW033291” value (mouse bone marrow) was “lesser increase”.

For `CCCC[S@](C)(O)c1sc2nc(-c3cccs3)cc(-c3ccccc3)c2c1N` [SW033291 isomer B], the “melting temperature of 15-PGDH” value (recombinant 15-PGDH [1]; Differential Scanning Fluorimetry, DMSO control 50.5° C.) was 68 °C, the “IC50 lower than the parent racemic mixture” value (recombinant 15-PGDH [2]) was 40% and the “concentration giving full reporter activity” value [3] was 0.1 µM.

For `COc1ccc(OC)c(N(CC(=O)Nc2cccnc2)S(=O)(=O)c2ccccc2)c1` [SW054384], the “luciferase activity of 15-PGDH luciferase fusion cells” value [4] was “increase luciferase activity”, the “direct binding to 15-PGDH by melting temperature shift” value (recombinant 15-PGDH [1]; 10 μM and 100 μM cofactor NAD or NADH) was “cannot be demonstrated to bind 15-PGDH” and the “levels of 15-PGDH protein (western blot)” value (15-PGDH protein) was “increase levels of 15-PGDH protein”.

For `O=C(c1ccc2nc(-c3ccccc3)c(-c3ccccc3)nc2c1)N1CCCCC1` [SW145753], the “luciferase activity of 15-PGDH luciferase fusion cells” value [4] was “increase luciferase activity”, the “PGE2 level in medium, reflecting 15-PGDH activity” value (A549 cells; IL1-beta 23 hours, compound added for last 5 hours) was “clear inhibition of 15-PGDH activity” and the “levels of 15-PGDH protein (western blot)” value (15-PGDH protein) was “increase levels of 15-PGDH protein”.

In the case of `CCCC[S+]([O-])c1sc2nc(-c3cccs3)ccc2c1N` (stereo not shown) [SW206980], the “highest PGE2 level achieved in medium” value (A549 cells; IL-1β 16 h, compound 8 h) is reported as 2500 pg/mL and the Toxicity (cell culture) is reported as greater than 7.5 µM.

In the case of `CCCC[S+]([O-])c1sc2nc(-c3nccs3)ccc2c1N` (stereo not shown) [SW206992], the “Concentration for Full Cell Line Reporter Induction” value ([4]; concentration to achieve maximal induction of 15-PGDH-luciferase reporter) is reported as greater than 1 µM, the “concentration at which maximal PGE2 effect attained” value (A549 cells; IL-1β 16 h, compound 8 h) is reported as 2.5 µM and the “highest PGE2 level achieved in medium” value (A549 cells; IL-1β 16 h, compound 8 h) is reported as 2100 pg/mL. The Toxicity (cell culture) was greater than 7.5 µM.

In the case of `CCCC[S+]([O-])c1sc2nc(-c3nccs3)cc(-c3cnc(C)n3C)c2c1N` (stereo not shown) [SW209415, 2-(butylsulfinyl)-4-(1,2-dimethyl-1H-imidazol-5-yl)-6-(thiazol-2-yl)thieno[2,3-b]pyridin-3-amine], the “increase of homed cells in recipient mouse bone marrow” value (bone marrow; 10 mg/kg IP, FACS 16 hours post-transplant) is reported as “approximately 2.5 fold”.

For `CCCCC(C)(C)[C@H](O)/C=C/[C@H]1[C@H](O)CC(=O)[C@@H]1C/C=C\CCCC(=O)O` [dmPGE2, 16,16-dimethyl PGE2], the “increase in number of bone marrow derived colonies relative to SW033291” value (mouse bone marrow) was “slightly greater increase”.

With `CCCC[S+]([O-])c1sc2nc(-c3nccs3)cc(-c3cnc(C)n3C)c2c1N` (stereo not shown) [formula (XIII)] the “chemical stability in aqueous solutions” value [5] was “chemically stable in aqueous solutions over broad pH range”, the EC50 (cell lines) was roughly 20 nM and the “immediate toxicity over 24 hours” value [6] was “no immediate toxicity”. The “homing of hematopoietic stem cells following bone marrow transplantation” value (bone marrow; mouse, 10 mg/kg body weight) was “increases homing of hematopoietic stem cells”, the “chemical stability with liver extracts” value [7] was “chemically stable when incubated with mouse, rat and human liver extracts” and the “PGE2 levels in colon, lung, liver and bone marrow” value ([8]; IP dose of 10 mg/kg body weight) was “elevates PGE2 levels”.

In the case of `COc1ccc2c(c1)c(CC(=O)O)c(C)n2C(=O)c1ccc(Cl)cc1` [indomethacin], the “effect on SW033291 induced increase of homing” value (bone marrow) is reported as “near completely blocked”.

With (+) SW209415 the “peak PGE2 levels in lung, liver, colon and bone marrow” value ([8]; IP 0.5, 1.5 or 5 mg/kg, peak at 3 hours) was “approximately double those of vehicle control”.
